{"source": "patent US9499590B2", "about": "“Antibodies against and methods for producing vaccines for respiratory syncytial virus” (MEDIMMUNE, LLC, priority 2009, dated 2016)", "key": {"[1]": {"system": "MEDI-524 (Numax™)", "assay": "Binding ELISA of F-peptides", "conditions": "peptide coated on plate", "experimental": "Based in part upon the results of the MARM analysis above, F peptides were synthesized (done by AnaSpec, Inc. San Jose, Calif.). Each well of the assay plate was coated with […] of […] of a particular soluble RSV F-Peptide overnight at 2-8° C. After the plate was aspirated and washed with PBS/0.05% Tween-20 buffer, it was blocked by incubating with PBS/0.05% Tween-20/0.5% BSA buffer for one hour at ambient temperature. The plate was washed and MEDI-524 standard curve samples, test samples, MEDI-524 Reference Standard, and negative control were added to the washed plate. Following a one-hour incubation at ambient temperature, the plate was washed, and […] of a goat anti-human IgG-HRP (horseradish peroxidase) at 1:16,000 dilution was added to the plate. After washing, […] of 3,3′,5,5′-tetramethylbenzidine (TMB) substrate was then added to the plate and incubated at ambient temperature protected from light for 10 minutes. The enzymatic reaction was stopped by adding […] of 2N H2SO4, and the absorbance at 450 nm was measured using a microplate reader. […] After meeting all system suitability requirements, as well as meeting the criteria of the parallelism test, the ED50 ratio of the test sample to Reference Standard was calculated, and the results were expressed as a percentage of the Reference Standard binding activity. […]"}, "[2]": {"system": "MEDI-524 Mab", "assay": "Isothermal titration calorimetry (ITC) of F peptides with MEDI-524 Mab", "assay_type": "binding", "conditions": "25 mM His, pH 6, 10° C.", "source_text": "Isothermal Titration calorimetry assays (ITC) have been described (see, for example, Heerklotz H et al., Biophysical Journal, May 1999). Molecular interactions are defined by stoichiometry and a few thermodynamic parameters. All binding reactions are associated with the absorption or generation of heat. Therefore calorimetry is emerging as a premier tool for the characterisation of interactions of biological macromolecules. ITC is the only method that measures equilibrium constants, enthalpy and entropy in one single experiment. If the experiment is performed at different temperatures the important parameter, the heat capacity change, can be determined. ITC has become a standard method for investigating the binding of ligands to receptor molecules. Accordingly, ligands are mixed with receptors, and the subsequent heats of incorporation (or binding) are measured.\nTo evaluate the binding properties of the wild-type peptide (SEQ ID NO.28) to Numax™/MEDI-524 by using the ITC technique. The MEDI-524 Mab was titrated with SEQ ID NO.28 in the basis buffer 25 mM His, pH 6 at 10° C. SEQ ID NO.28: (MW=2732.14, no W, Y, or C). A working solution of 55 μM was prepared by diluting 30 μL of a 5 mg/mL peptide solution with 970 μL, of 25 mM His, pH 6 buffer to be used for the ITC titrations. A 1.15 μM (0.1706 mg/ml) working solution of MEDI-524 was used for the experiments (MW 148400, A280=1.47). […]"}}}
{"substance": "F peptide with a histidine at position 262: F peptide with a histidine at position 262; SEQ ID number not stated (SEQ ID No: 13, 25 and 26 carry it) (NSELLSLIHDMPITNDQKKLMSNN)", "values": [{"measurement": "Binding to Numax™ compared with wild-type F protein epitope (SEQ ID NO. 1)", "setting": "[1]", "value": "more tightly"}]}
{"substance": "NSELLSLINDMPITNDQKKLMSNN-NH2 [SEQ ID NO.28]", "values": [{"measurement": "binding strength lower compared to the SEQ ID NO.24 peptide", "setting": "[2]", "value": "~3 orders of magnitude"}]}
